# System: IL-2 production
# Experiment: Inhibition of IL-2 production in PHA-activated Jurkat cells (ELISA)
# Format: cell-based
# Details: Homo sapiens, PHA 2.5 μg/mL, 20 hours, IL-2 ELISA
# Procedure: Jurkat cells were placed in a 96 well plate (0.5 million cells per well in 1% FBS medium) then a test compound of this invention was added at different concentrations. After 10 minutes, the cells were activated with PHA. (final concentration 2.5 μg/mL) and incubated for 20 hours at 37° C. under CO2. The final volume was 200 μL. Following incubation, the cells were centrifuged and the supernatants collected and stored at −70° C. prior to assaying for IL-2 production. A commercial ELISA kit (IL-2 Eli-pair, Diaclone Research, Besancon, France) was used to detect production of IL-2, from which dose response curves were obtained. The IC50 value was calculated as the concentration at which 50% of maximum IL-2 production after stimulation was inhibited versus a non-stimulation control.
row,IC50,SMILES
1,50 to 500 nM,"Cc1ccc(-c2ncco2)cc1-c1ccc(NS(=O)(=O)c2c(F)cccc2F)cc1 [Compound 1, 2,6-Difluoro-N-(2′-methyl-5′-oxazol-2-yl-biphenyl-4-yl)-benzenesulfonamide]"
2,500 to 1000 nM,"Cc1ccc(-c2ncco2)cc1-c1ccc(/N=C/c2c(F)cccc2F)cc1 [Compound 76, (E)-N-(2,6-difluorobenzylidene)-2′-methyl-5′-(oxazol-2-yl)biphenyl-4-amine]"
3,< 25 nM,"Cc1ccc(-c2cnco2)cc1-c1ccc(NC(=O)Nc2c(F)cccc2F)cc1 [Compound 4, 1-(2,6-Difluoro-phenyl)-3-(2′-methyl-5′-oxazol-5-yl-biphenyl-4-yl)-urea]"

# Second part, the molecule before the results:
row,SMILES,IC50
1,"COC(=O)c1ccc(C)c(-c2ccc(NNC(=O)c3c(F)cccc3F)cc2)c1 [Compound 77, methyl 4′-(2-(2,6-difluorobenzoyl) hydrazinyl)-6-methylbiphenyl-3-carboxylate]",50 to 500 nM
2,"Cc1ccc(-c2ncco2)cc1-c1ccc(NC(=O)Nc2ncncc2C)cc1 [Compound 74, 1-(2′-Methyl-5′-(oxazol-2-yl)biphenyl-4-yl)-3-(5-methylpyrimidin-4-yl)urea]",25 to 50 nM
